Legend:
Assay type in all cases: physicochemical
[1] = Citrate and PBS vehicle formulations: pH, osmolality, concentration and recovery (HPLC)
Experimental: Two additional vehicles: sodium citrate (50 mM) and PBS (commercial) were formulated at different concentrations (Table 5, Table 6). Both vehicles at any concentration were compounded using the appropriate final sodium hydroxide concentration (0.1 M NaOH stock solution).
The PBS vehicle was compounded to two different pH-values while the citrate vehicle was compounded at different concentrations at the same target pH and tested for its stability over the course of 24 h (rt, exclusion from light). To evaluate the potential occurrence of particles from precipitation, a filtration step (0.2 μm micro centrifugal filters) was included at each time point.
In case of Sample #27 the amount of HCl (aq.) (0.1 M stock) added instead of the NaOH-solution was mixed with the 10×PBS buffer and added to the aqueous solution of Compound 1 in a single step.

[2] = Liquid injectable formulation: compounding, dilution into infusion vehicles, stability
Experimental: Compounding process for liquid formulations of Compound 1, designed for dilution into infusion vehicles was developed with 3.0 mg/mL of Compound 1 (or 3.13 mg/mL Compound 1 free base equivalent), phosphate buffer solution (PBS), and pH of 6.4-7.2. The compounding process was applied over a wide range of scales (25-500 mL).
The compounding of the drug product required a neutralization step using 0.5N sodium hydroxide solution and buffering with PBS to adjust the pH to values compatible with an IV infusion. The compounding process also required a filtration step, which also served as aseptic processing.
The compounded formulations were diluted into infusion vehicles: normal saline, 5% dextrose in water (D5W), and lactated Ringer's solution (buffered and unbuffered). The dilution into normal saline was carried out at 100-fold and 600-fold dilution.

[3] = Compatibility with IV systems
Experimental: (§1) The compatibility of the reconstituted Compound 1 formulation with two infusion bags (different volumes and material) and two IV lines was tested (Table 13) at c(Compound 1)=0.1 mg/mL. After injection of the reconstituted drug product solution into infusion bags filled with NS, the recovery of Compound 1 was measured i) directly after mixing with the infusion vehicle (to, Table 14) and ii) after Δt=[…] of contact time with the infusion bag (Table 15). Additionally, storage in an infusion bag at ambient temperature and lighting conditions was assessed for Δt=6 h (Table 15). The average values of % recovery are relative to the reconstituted drug product that has not been in contact with the tested materials.
The two IV systems were evaluated for compatibility with the reconstituted drug product solution by filling the IV lines with the diluted (NS) drug product solution and flowing Vflow through (FT)=101 mL through the respective IV system at a flow rate of 5 mL/min. Flow-through samples of Vsample=1 mL were collected i) immediately (VFT=0 mL), ii) after VFT=10 mL and iii) after VFT=[…]. Flow through samples were assayed for recovery of Compound 1 and compared to the infusion solution in the reservoir at t0 (Table 16).

[4] = Compatibility with vials and stoppers
Experimental: The compatibility of the reconstituted Compound 1 formulation with sterile manufacturing vials and stoppers (Table 17) was tested for a contact time of Δt=1 h at c(Compound 1, target)=10 mg/mL at ambient conditions. The average values of % recovery are relative to the reconstituted drug product that has not been in contact with the tested materials.

[5] = Compatibility with infusion vehicles (NS, D5W)
Experimental: The compatibility of the reconstituted Compound 1 formulation with two infusion vehicles, normal saline (NS) and 5% dextrose in water (D5W) was tested after Δt=4 h for two concentration (high/low) at c(Compound 1, target)=0.1 mg/mL and c(Compound 1, target)=1.0 mg/mL and at ambient conditions (Table 10). The average values of % recovery are relative to the dilution of the reconstituted drug product into DI water at to.

[6] = Compatibility with infusion bags
Experimental: as §1

Question: Which “Stability of Compound 1 in citrate buffer” value ([1]; 24 h, ambient temperature) does the source give for `C[C@@H](NC(=O)N1C(=O)[C@H](Cc2ccnc(N)c2)[C@H]1C(=O)O)C1CCCCC1` [Compound 1, (2S,3R)-3-[(2-aminopyridin-4-yl)methyl]-1-{[(1R)-1-cyclohexylethyl]carbamoyl}-4-oxoazetidine-2-carboxylic acid] here?
Answer: confirmed

Question: What about the “Precipitation of Compound 1” value ([1]; citrate buffer, within 24 h) of the same compound?
Answer: not observed

Question: And the pH over time ([2]; diluted into normal saline, 0.03 mg/mL, ambient, 48 hours)?
Answer: constant

Question: What about the purity over time ([2]; diluted into normal saline, 0.03 mg/mL, ambient, over 48 hours) of the same compound?
Answer: unchanged

Question: And the “time stable at ambient temperature” value ([2]; formulation diluted into normal saline, 0.03 mg/mL)?
Answer: at least 48 hours

Question: And the “loss of Compound 1 in filtration step of compounding” value ([2]; liquid formulation 3.0 mg/mL, PBS, pH 6.4-7.2)?
Answer: minimal loss or no loss

Question: What about the nominal degradation ([2]; liquid formulations, 2-8° C., at least one week) of the same compound?
Answer: < 4%

Question: What about the “Avg. c(Compound 1, FB, Obs.)” value ([3]; IV#1, VFT = 0 mL, 5 mL/min) of the same compound?
Answer: 0.09 mg/mL

Question: What about the “Avg. c(Compound 1, FB, Obs.)” value ([3]; IV#1, VFT = 10 mL, 5 mL/min) of the same compound?
Answer: 0.09 mg/mL

Question: And the “Avg. c(Compound 1, FB, Obs.)” value ([3]; IV#1, VFT = 100 mL, 5 mL/min)?
Answer: 0.09 mg/mL

Question: What about the “Avg. c(Compound 1, FB, Obs.)” value ([3]; IV#2, VFT = 0 mL, 5 mL/min) of the same compound?
Answer: 0.09 mg/mL

Question: And the “Avg. c(Compound 1, FB, Obs.)” value ([3]; IV#2, VFT = 10 mL, 5 mL/min)?
Answer: 0.09 mg/mL

Question: What about the “Avg. c(Compound 1, FB, Obs.)” value ([3]; IV#2, VFT = 100 mL, 5 mL/min) of the same compound?
Answer: 0.09 mg/mL

Question: And the “Avg. c(Compound 1, FB, Obs.)” value ([3]; infus. bag, t0 (IV#1), reservoir)?
Answer: 0.09 mg/mL

Question: What about the “Avg. c(Compound 1, FB, Obs.)” value ([3]; infus. bag, t0 (IV#2), reservoir) of the same compound?
Answer: 0.09 mg/mL

Question: What about the “Avg. c(Compound 1, FB, Obs.)” value ([4]; Reconst. Soln., no contact with tested materials) of the same compound?
Answer: 9.32 mg/mL

Question: What about the “Avg. c(Compound 1, FB, Obs.)” value ([4]; Stopper, t = 1 h, target 10 mg/mL, ambient) of the same compound?
Answer: 9.28 mg/mL

Question: What about the “Avg. c(Compound 1, FB, Obs.)” value ([4]; Vial, t = 1 h, target 10 mg/mL, ambient) of the same compound?
Answer: 9.28 mg/mL

Question: What about the “Avg. c(Compound 1, FB, Obs.)” value ([5]; target 0.1 mg/mL, D5W, t = 4 h, ambient) of the same compound?
Answer: 0.09 mg/mL

Question: What about the “Avg. c(Compound 1, FB, Obs.)” value ([5]; target 0.1 mg/mL, NS, t = 4 h, ambient) of the same compound?
Answer: 0.09 mg/mL

Question: What about the “Avg. c(Compound 1, FB, Obs.)” value ([5]; target 0.1 mg/mL, Water, t0) of the same compound?
Answer: 0.09 mg/mL

Question: And the “Avg. c(Compound 1, FB, Obs.)” value ([5]; target 0.1 mg/mL, Water, t = 4 h, ambient)?
Answer: 0.09 mg/mL

Question: What about the “Avg. c(Compound 1, FB, Obs.)” value ([5]; target 1.0 mg/mL, D5W, t = 4 h, ambient) of the same compound?
Answer: 0.92 mg/mL

Question: What about the “Avg. c(Compound 1, FB, Obs.)” value ([5]; target 1.0 mg/mL, NS, t = 4 h, ambient) of the same compound?
Answer: 0.92 mg/mL

Question: And the “Avg. c(Compound 1, FB, Obs.)” value ([5]; target 1.0 mg/mL, Water, t0)?
Answer: 0.92 mg/mL

Question: What about the “Avg. c(Compound 1, FB, Obs.)” value ([5]; target 1.0 mg/mL, Water, t = 4 h, ambient) of the same compound?
Answer: 0.92 mg/mL

Question: And the “Avg. c(Compound 1, FB, Obs.)” value ([6]; Sample soln. (water), no contact with bags)?
Answer: 0.09 mg/mL

Question: And the “Avg. c(Compound 1, FB, Obs.)” value ([6]; infus. bag1 (500 mL Viaflo, NS), t0, vs sample soln.)?
Answer: 0.09 mg/mL

Question: And the “Avg. c(Compound 1, FB, Obs.)” value ([6]; infus. bag1, t = 10 min)?
Answer: 0.09 mg/mL

Question: And the “Avg. c(Compound 1, FB, Obs.)” value ([6]; infus. bag1, t = 6 h, ambient)?
Answer: 0.09 mg/mL

Question: What about the “Avg. c(Compound 1, FB, Obs.)” value ([6]; infus. bag2 (50 mL Viaflex, NS), t0, vs sample soln.) of the same compound?
Answer: 0.08 mg/mL

Question: What about the “Avg. c(Compound 1, FB, Obs.)” value ([6]; infus. bag2, t = 10 min) of the same compound?
Answer: 0.08 mg/mL

Question: What about the “Avg. c(Compound 1, FB, Obs.)” value ([6]; infus. bag2, t = 6 h, ambient) of the same compound?
Answer: 0.08 mg/mL

Question: And the “adsorption of Compound 1 to infusion bag material” value ([6]; infusion bag #1 (Viaflo) compared with infusion bag #2 (Viaflex), immediately after contact)?
Answer: lesser extent of Compound 1 adsorption

From patent US20230270731A1, “THERAPEUTIC COMPOUNDS AND COMPOSITIONS” (eXIthera Pharmaceuticals, Inc., priority 2019, published 2023)
